The values below come from paper PMC3097197 (PLoS ONE, 2011).

Entries after “also recorded” stand apart in the source; their conditions may differ.

In series [1] the test system is YopE secretion by attenuated Y. pestis. As to the kind of experiment: microbe, parasite or virus in culture. The class given is cell-based, Yersinia pestis KIM19. The following applies: for inhibition at 10 µM / inhibition at 100 µM: Yersinia pestis, 1 h; for inhibition at 10 µM: read-out: Inhibition of YopE secretion at 10 µM; for inhibition at 100 µM: read-out: Inhibition of YopE secretion at 100 µM.

Series [2] relates to Attenuated Y. pestis KIM19 strain. The class given is cell-based, Yersinia pestis.
In series [3] the test system is HeLa cells incubated with attenuated Y. pestis KIM19 strain.
The test system is the same in series [4]. Kind of series: cells. The following applies: Homo sapiens, 3 h; for inhibition at 10 µM: read-out: Inhibition of HeLa cell toxicity by attenuated Y. pestis at 10 µM; for inhibition at 50 µM: read-out: Inhibition of HeLa cell toxicity by attenuated Y. pestis at 50 µM.
Series [5] can be described thus: in vitro. The following applies: human, hela cells.
Series [6] has as its system human HeLa cells.

What is called inhibition is the relative decrease from the control value, in per cent. For `O=C(CNC(=O)c1sc2ccccc2c1Cl)Nc1ccc(-n2cnc3ccccc32)cc1` [Compound 7832], in series [1], the “Inhibition of YopE secretion at 50 µM or lower concentration” value was “at least 50%”, the inhibition at 10 µM is at least 95% and the inhibition at 100 µM was at least 80%. Moreover, in series [2], the “Effect on growth rate of Y. pestis in bacterial medium (in words)” value (shortened to “Effect on growth rate of Y. pestis”) is given as “none of them had a significant effect on the growth rate; also recorded: minimal bacterial growth inhibition”. Also, the “Effectiveness in the cell infection model (in words)” value (from here on “Effectiveness”) in series [3] is “only moderately effective”. Besides, in series [4], the inhibition at 10 µM turned out to be 0% and the inhibition at 50 µM turned out to be 30%. Further, the cytotoxicity at 100 µM in series [5] is 0%.
Regarding `Cc1ccc(S(=O)(=O)N2CCCN(c3ccc([N+](=O)[O-])c4nonc34)CC2)cc1` [Compound 1504], the “Inhibition of YopE secretion (in words)” value in series [1] is “poor inhibitors of the YopE secretion”.
For the molecule `CNC(=O)C1CN(C(=O)COC(=O)c2cc(-c3cccs3)nc3ccccc23)c2ccccc2O1` (stereo not shown) [Compound 9652], in series [1], the inhibition at 100 µM was found to be 30%.
For `CC(=O)Nc1ccc(-c2csc(NC(=O)c3sc4nc(C)cc(C)c4c3C)n2)c(F)c1` [Compound 7146], the “Inhibition of YopE secretion (in words)” value in series [1] is recorded as “poor inhibitors of the YopE secretion”.
For the molecule `CC(=O)Nc1ccc(N2C(=O)c3ccc(C(=O)OC(C)C(=O)c4c[nH]c5ccccc45)cc3C2=O)cc1` (stereo not shown) [Compound 7812], in series [1], the “Inhibition of YopE secretion at 50 µM or lower concentration” value is “at least 50%”, the inhibition at 10 µM is at least 95% and the inhibition at 100 µM was at least 80%. In addition, the “Effect on growth rate of Y. pestis” value in series [2] is reported as “none of them had a significant effect on the growth rate; also recorded: minimal bacterial growth inhibition”. Further, the “Effectiveness” value in series [3] is on record as “only moderately effective”. In series [4], the inhibition at 10 µM turned out to be 0% and the inhibition at 50 µM came out at 0%. Further, in series [5], the cytotoxicity at 100 µM stood at 0%.
For `O=C(Cc1csc(NC(=O)c2ccccc2)n1)Nn1cnc2scc(-c3ccco3)c2c1=O` [Compound 7086], in series [1], the “Inhibition of YopE secretion at 50 µM or lower concentration” value is listed as “at least 50%”, the inhibition at 10 µM is at least 95% and the inhibition at 100 µM is at least 80%. In addition, the “Effect on growth rate of Y. pestis” value in series [2] is “small bacteriostatic effect; also recorded: some bacteriostatic effect; also recorded: slight inhibition of bacterial growth”. For the same molecule, the “Effectiveness” value in series [3] is listed as “only moderately effective”. Also, in series [4], the inhibition at 10 µM is 0% and the inhibition at 50 µM was 20%. Further, the cytotoxicity at 100 µM in series [5] came to 26 ± 11%.
On to Methanol [reference compound], for which the “Cytotoxicity against HeLa cells, inhibition at 100 µM” value in series [6] came out at 100±1%.
